Where two headings read alike, the source gives them in different places.
Legend:
[1] = system: tobacco mosaic virus (TMV); experiment: Inhibition of local lesion formation by TMV, half-leaf method on kidney bean primary leaves; type: in vivo, tobacco mosaic virus on kidney bean plants (variety: Otebo); conditions: for inhibition at 500 ppm: Tobacco mosaic virus, read-out: Evaluation (rate of inhibition of lesion spot formation)
Excerpt: (§1) In the experiments one of the compounds of the present invention was formulated as in the above-mentioned Example 3 and after diluting the formulated composition with water to a predetermined concentration.
In this test, the inhibiting action of the compound of the present invention against the formation of local lesion due to the infection of tobacco mosaic virus (TMV) was examined by the half-leaf method using primary leaves of kedny been plants (variety: Otebo). TMV was inoculated on the primary leaf of kedney been plant, and just after the inoculation, the diluted liquid of the compound was painted on the half surface of the leaf and water was painted on the other half surface of the leaf. The concentration of the compounds of the present invention in the liquid was 500 ppm, and the inoculum was adjusted to form about 50 topical lesion spots on the half surface of the leaf painted with water (control). Ten leaves were usually used for the evaluation of one compound, and the rate of inhibition of lesion spot formation was derived from the following formula: [formula]
The thus obtained rates of inhibition were evaluated according to the following criteria: […]

[2] = system: cucumber mosaic virus (CMV); experiment: Inhibition of CMV disease transmitted by aphids (Myzus persicae) on cucumber plants; type: in vivo; conditions: CMV via wingless aphids, 500 ppm, sprayed before aphid transmigration, one week after spray
Excerpt: as §1, with “The followings are the test results of the compounds of the present invention in the plant virus disease-controlling experiments. In” for “In”
The compounds evaluated as A in Test results 2 were further tested as follows:
The cucumber plants growing for two weeks after sowing in greenhouse were sprayed by each liquid containing each compound at a concentration of 500 ppm (variety of cucumber: Kinseisanto). After drying at room temperature about 3 hours, wingless aphids (Myzus persicae, Sulzer) which had been put on the suffered cucumber plant from CMV and shipped the plant sap containing CMV were transmigrated to the sprayed cucumber plants at a rate of 5 insects per plant. On the next day of the transmigration, the insects were killed by spraying dichlorvos in the plants. After one week of the spray of the compound of the present invention, the effectiveness of the compound in inhibiting the occurrence of the sign of disease due to the virus was investigated as the number of plants without the sign of disease per number of plants sprayed. As the control, water was sprayed.

[3] = TMV, kidney bean primary leaves, 500 ppm, painted just after inoculation, half-leaf method

| SMILES | inhibition at 500 ppm [1, 3] | Evaluation (number of plants without the sign of disease per number of plants sprayed) [2] | Evaluation (rate of inhibition of lesion spot formation) [1, 3] | other results |
| --- | --- | --- | --- | --- |
| CCCCCCCCCCCCNCC[C@H](O)[C@H](O)CO [Compound 55] | 90 to 100% | A (10/10-8/10) |  |  |
| CCCCCCCCCCNC[C@H](O)[C@H](O)[C@H](O)CO [Compound 43] | 90 to 100% |  |  |  |
| CCCCCCCCCCNC[C@H](O)[C@@H](O)[C@H](O)[C@H](O)CO [Compound 10] | 90 to 100% | B (7/10-5/10) |  |  |
| CCCCCCCCCCCCNC[C@H](O)[C@H](O)[C@H](O)CO [Compound 46] |  |  | A (100-90) |  |
| CCCCCCCCCCCCNC[C@H](O)[C@@H](O)[C@H](O)[C@H](O)CO [Compound 13] |  | A (10/10-8/10) | A (100-90) |  |
| CCCCCCCCCCCCNC[C@H](O)[C@@H](O)[C@@H](O)[C@H](O)CO [Compound 37] |  |  | B (90-70) |  |
| CCCCCCCCNC[C@H](O)[C@@H](O)[C@H](O)[C@H](O)CO [Compound 8] | 70 to 90% |  |  |  |
| CCCCCCCCCCCCNC[C@H](O)[C@@H](O)[C@H](O[C@@H]1O[C@H](CO)[C@@H](O)[C@H](O)[C@H]1O)[C@H](O)CO [Compound 61] | 90 to 100% | B (7/10-5/10) |  |  |
| CCCCCCCCCCCCCCCCNC[C@H](O)[C@@H](O)[C@H](O)[C@H](O)CO [Compound 23] | 70 to 90% |  |  |  |
| CCCCCCCCCCCCCCCNC[C@H](O)[C@@H](O)[C@H](O)[C@H](O)CO [Compound 20] | 70 to 90% |  |  |  |
| CCCCCCCCCCCCNC[C@H](O)[C@H](O)[C@H](O)CO [Compound 47] |  |  | A (100-90) |  |
| CCCCCCCCCCCCCCCCCCNC[C@H](O)[C@@H](O)[C@H](O)[C@H](O)CO [Compound 24, 1-deoxy-1-n-octadecylamino-D-glucitol] | 90 to 100% | A (10/10-8/10) |  |  |
| CCCCCCCCCCCCCCCCCCNC[C@H](O)[C@@H](O)[C@H](O[C@@H]1O[C@H](CO)[C@@H](O)[C@H](O)[C@H]1O)[C@H](O)CO [Compound 62] | 70 to 90% |  |  |  |
| CCCCCCCCCCCCNC[C@H](O)[C@@H](O)[C@H](O[C@@H]1O[C@H](CO)[C@H](O)[C@H](O)[C@H]1O)[C@H](O)CO [Compound 58] | 90 to 100% | B (7/10-5/10) |  |  |
| CCCCCCCCCCCCCCNC[C@H](O)[C@@H](O)[C@H](O)[C@H](O)CO [Compound 18] | 70 to 90% |  |  |  |
| CCCCCCNC[C@H](O)[C@@H](O)[C@H](O)[C@H](O)CO [Compound 7] | 70 to 90% |  |  |  |
| CCCCCCCCCCCCNC[C@@H](O)[C@@H](O)[C@H](O)[C@H](O)CO [Compound 32] |  |  | A (100-90) |  |
| CCCCCCCCCCCCNCC[C@@H](O)[C@H](O)[C@H](O)CO [Compound 41] | 90 to 100% |  |  |  |
| CCCCCCCCCCCCCCNC[C@@H](O)[C@@H](O)[C@H](O)[C@H](O)CO [Compound 33] | 70 to 90% |  |  |  |
| CCCCCCCCCCNC[C@H](O)[C@@H](O)[C@H](O)CO [Compound 51] |  |  | A (100-90) |  |
| CCCCCCCCCCCCNC[C@H](O)[C@@H](O)[C@@H](O)[C@H](O)CO [Compound 35] | 70 to 90% |  |  |  |
| CCCCCCCCCCCCCCCCCCNC[C@H](O)[C@@H](O)[C@H](O[C@@H]1O[C@H](CO)[C@@H](O)[C@H](O)[C@H]1O)[C@H](O)CO [Compound 63] |  |  | B (90-70) |  |
| CCCCCCCCCCCCNC[C@@H](O)[C@@H](O)[C@H](O)[C@H](O)CO [Compound 30] |  |  | B (90-70) |  |
| CCCCCCCCCCCCNC[C@H](O)[C@H](O)[C@@H](O)[C@H](C)O [Compound 38] | 70 to 90% |  |  |  |
| CCCCCCCCCCCCNC[C@@H](O)[C@@H](O)[C@H](O)[C@H](O)CO [Compound 31] |  |  | A (100-90) |  |

| SMILES | inhibition at 500 ppm [1, 3] | Evaluation (number of plants without the sign of disease per number of plants sprayed) [2] | Evaluation (rate of inhibition of lesion spot formation) [1, 3] | other results |
| --- | --- | --- | --- | --- |
| CCCCCCCCCCCCCCCCCCNC[C@H](O)[C@@H](O)[C@H](O[C@H]1O[C@H](CO)[C@@H](O)[C@H](O)[C@H]1O)[C@H](O)CO [Compound 57] |  |  | B (90-70) |  |
| CCCCCCCCCCCCCCNC[C@H](O)[C@@H](O)[C@H](O)CO [Compound 54] |  |  | A (100-90) |  |
| CCCCCCCCCCCCNC[C@H](O)[C@@H](O)[C@H](O)[C@H](O)CO [Compound 14] |  | B (7/10-5/10) | A (100-90) |  |
| CCCCCCCCCCCCCCNC[C@H](O)[C@H](O)[C@H](O)CO [Compound 49] | 90 to 100% | A (10/10-8/10) |  |  |
| CCCCCCCCCCCCNC[C@H](O)[C@H](O)[C@H](O)CO [Compound 48] |  | A (10/10-8/10) | A (100-90) |  |
| CCCCCCCCCCNC[C@H](O)[C@@H](O)[C@H](O)CO [Compound 50] | 70 to 90% |  |  |  |
| CCCCCCCCCCCCNC[C@H](O)[C@@H](O)[C@H](O)[C@H](O)CO [Compound 12] | 90 to 100% | A (10/10-8/10) |  |  |
| CCCCCCCCCCNC[C@@H](O)[C@@H](O)[C@H](O)[C@H](O)CO [Compound 26] | 90 to 100% | B (7/10-5/10) |  |  |
| CCCCCCCCCCCCNC[C@H](O)[C@@H](O)[C@H](O)[C@H](O)CO [Compound 15] |  | A (10/10-8/10) | A (100-90) |  |
| CCCCCCCCCCCCNC[C@H](O)[C@@H](O)[C@H](O)CO [Compound 52] | 90 to 100% | A (10/10-8/10) |  |  |
| CCCCCCCCCCCCCCCCCCNC[C@H](O)[C@@H](O)[C@H](O[C@@H]1O[C@H](CO)[C@H](O)[C@H](O)[C@H]1O)[C@H](O)CO [Compound 59] | 90 to 100% |  |  |  |
| CCCCCCCCCCCCNC[C@@H](O)[C@@H](O)[C@H](O)[C@H](O)CO.Cl [Compound 29, 1-deoxy-1-n-dodecylamino-D-mannitol hydrochloride] |  | B (7/10-5/10) | A (100-90) |  |
| CCCCCNC[C@H](O)[C@@H](O)[C@H](O)[C@H](O)CO [Compound 5] | 70 to 90% |  |  |  |
| CCCCCCCCCCCCNC[C@H](O)[C@H](O)[C@H](O)CO [Compound 45] | 70 to 90% |  |  |  |
| CCCCCCCCCCCCNC[C@H](O)[C@@H](O)[C@H](O)[C@H](O)CO [Compound 16] |  | A (10/10-8/10) | A (100-90) |  |
| CCCCCCCCCCCCNC[C@H](O)[C@@H](O)[C@H](O)[C@H](O)CO [Compound 17] |  |  | B (90-70) |  |
| CCCCCCCCCCNC[C@@H](O)[C@@H](O)[C@H](O)[C@H](O)CO [Compound 27] |  | B (7/10-5/10) |  |  |
| CCCCCCCCCCCCNCC[C@@H](O)[C@H](O)[C@H](O)CO [Compound 42] |  |  | B (90-70) |  |
| CCCCCCCCCCCCNC[C@@H](O)[C@@H](O)[C@H](O)[C@H](O)CO [Compound 28] | 90 to 100% |  |  |  |
| CCCCCCCCCCCCNC[C@H](O)[C@H](O)[C@H](O)CO [Compound 44] |  |  | B (90-70) |  |
| CCCCCCCCCCCCNC[C@H](O)[C@@H](O)[C@@H](O)[C@H](O)CO [Compound 36] |  |  | B (90-70) |  |
| CCCCCCCCCCCCCCNC[C@H](O)[C@@H](O)[C@H](O)CO [Compound 53] | 90 to 100% | A (10/10-8/10) |  |  |
| CCCCCCCCCCCCCCCCCCNC[C@H](O)[C@@H](O)[C@H](O[C@@H]1O[C@H](CO)[C@H](O)[C@H](O)[C@H]1O)[C@H](O)CO [Compound 60] |  |  | B (90-70) |  |
| CCCCNC[C@H](O)[C@@H](O)[C@H](O)[C@H](O)CO [Compound 3] |  |  |  | inhibition at 500 ppm [1]: 70 to 90% |
| CCCCCCCCCCCCCCCCCCNC[C@H](O)[C@@H](O)[C@H](O[C@H]1O[C@H](CO)[C@@H](O)[C@H](O)[C@H]1O)[C@H](O)CO [Compound 56] | 90 to 100% |  |  |  |
